Counter-ions that a name gives are not always drawn. Like-named read-outs stand apart in the source and are kept apart here.
How the values were obtained:
[1] = target: T1, human norepinephrine transporter (hNET) (Homo sapiens, UniProt P23975); test: hNET receptor binding ([125I]-RTI-55 displacement, membranes of transfected HEK-293 cells); conditions: HEK-293 membranes, Ki from IC50 by Cheng-Prusoff, read-out: NET Ki
T1 construct: expressed in transfected cells; host or cells: HEK-293 cells (membrane preparation)
In short: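 Membranes from HEK-293 cells expressing human NET were incubated 90 min at room temperature with 50 pM [125I]-RTI-55 and compound (10^−5 to 10^−12 M) in Krebs-HEPES buffer, pH 7.4. Bound radioligand was counted after filtration, with nonspecific binding defined by 10 μM desipramine. IC50 was converted to Ki by Cheng-Prusoff.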

[2] = target: T2, human serotonin transporter (hSERT) (Homo sapiens, UniProt P31645); test: hSERT receptor binding ([125I]-RTI-55 displacement, membranes of transfected HEK-293 cells); conditions: HEK-293 membranes, Ki from IC50 by Cheng-Prusoff, read-out: SERT Ki
T2 construct: expressed in transfected cells; host or cells: HEK-293 cells (membrane preparation)
In short: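 Membranes from HEK-293 cells expressing human SERT were incubated 90 min at room temperature in Krebs-HEPES (pH 7.4) with 50 pM [125I]-RTI-55 and compound (10^-12 to 10^-5 M), in duplicate. Nonspecific binding was defined with 10 μM citalopram. Ki from IC50 by Cheng-Prusoff.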

[3] = system: capsaicin-induced mechanical allodynia; test: Rat model of capsaicin-induced mechanical allodynia (paw withdrawal threshold, Von Frey); assay type: in vivo; conditions: for inhibition in vivo at 10 mg/kg: Rattus norvegicus, po, 2 h, read-out: % inhibition +/− SEM
Method: In certain embodiments, the compounds of formula I may be assayed for their ability to alleviate capsaicin-induced mechanical allodynia in a rat (e.g., Sluka, K A, (2002) J of Neuroscience, 22(13): 5687-5693). For example, a rat model of capsaicin-induced mechanical allodynia) can be carried out as follows:
On day 0, male Sprague-Dawley rats (˜150 g) in the dark cycle are placed in suspended wire-bottom cages and allowed to acclimate for 0.5 h in a darkened, quiet room. The day 0 paw withdrawal threshold (PWT) is determined on the left hind paw by Von Frey hair assessment using the Dixon up and down method. After assessment, the plantar muscle of the right hind paw is injected with 100 μl capsaicin (0.25% in 10% ethanol, 10% Tween 80, in sterile saline). On day 6 the PWT of the left hindpaw (contralateral from injection site) is determined for each animal. Animals from the day 6 prereads with PWT≦11.7 g are considered allodynic responders and are regrouped so that each cage had similar mean PWT values. On day 7, responders are dosed (e.g., orally, intraperitoneally, and subcutaneously, etc.) with 10 ml/kg vehicle (0.5% HPMC(hydroxy-propylmethylcellulose)/0.2% Tween™ 80), or vehicle plus compound. The contralateral PWT values are determined at 2 hours (or at about the time corresponding to the estimated Cmax) after the single dose, with the investigator blinded to the dosing scheme. Those of skill in the art can determine the appropriate time to determine the contralateral PWT value (e.g., 1 hour, 2 hours, etc.).
For each animal, the day 6 PWT value is subtracted from the 2 hour PWT value to give a delta PWT value that represents the change in PWT due to the 2 hour drug treatment. In addition, the day 6 PWT is subtracted from the day 0 PWT to give the baseline window of allodynia present in each animal. To determine % inhibition of allodynia of each animal normalized for vehicle controls, the following formula is used: % Inhibition of Allodynia=100×(Delta PWT(drug)−mean Delta PWT(vehicle))/(Baseline−mean Delta PWT(vehicle)). Pharmaceutically Acceptable Salts and Solvates
Compounds of the present invention may be assayed for their ability to alleviate capsaicin-induced mechanical allodynia in a rat model (e.g., Sluka (2002) J of Neuroscience, 22(13)5687-5693). For example, a rat model of capsaicin-induced mechanical allodynia was carried out as follows:
On day 0, male Sprague-Dawley rats (˜150 g) in the dark cycle were placed in suspended wire-bottom cages and allowed to acclimate for 0.5 hour in a darkened, quiet room. The day 0 paw withdrawal threshold (PWT) was determined on the left hind paw by Von Frey hair assessment using the Dixon up and down method. After assessment, the plantar muscle of the right hind paw was injected with 100 μl capsaicin (0.25% (w/v) in 10% ethanol, 10% Tween 80, in sterile saline). On day 6 the PWT of the left hindpaw (contralateral from injection site) was determined for each animal. Animals from the day 6 prereads with PWT≦11.7 g were considered allodynic responders and were regrouped so that each cage had similar mean PWT values.
On day 7, responders were dosed subcutaneously with 30 mg of the compound of Example 7/kg body weight, 10 mg of the compound of the compound of Example 48/kg body weight, or with vehicle alone. The vehicle was phosphate buffered saline containing 2% Cremophor®) EL (BASF).
For the animals dosed with the compound of Example 7, the contralateral PWT values were determined at 2 hour after the single dose, with the investigator blinded to the dosing scheme.
For each animal, the day 6 PWT value was subtracted from the 2 hour PWT value for the 10 mg/kg doses to give a delta PWT value that represents the change in PWT due to the […] drug treatment. In addition, the day 6 PWT was subtracted from the day 0 PWT to give the baseline window of allodynia present in each animal. […]

[4] = male Sprague-Dawley rats, oral single dose 10 mg/kg, contralateral PWT at 2 hours after dose, mean of eight animals

T1 sequence (P23975 whole entry): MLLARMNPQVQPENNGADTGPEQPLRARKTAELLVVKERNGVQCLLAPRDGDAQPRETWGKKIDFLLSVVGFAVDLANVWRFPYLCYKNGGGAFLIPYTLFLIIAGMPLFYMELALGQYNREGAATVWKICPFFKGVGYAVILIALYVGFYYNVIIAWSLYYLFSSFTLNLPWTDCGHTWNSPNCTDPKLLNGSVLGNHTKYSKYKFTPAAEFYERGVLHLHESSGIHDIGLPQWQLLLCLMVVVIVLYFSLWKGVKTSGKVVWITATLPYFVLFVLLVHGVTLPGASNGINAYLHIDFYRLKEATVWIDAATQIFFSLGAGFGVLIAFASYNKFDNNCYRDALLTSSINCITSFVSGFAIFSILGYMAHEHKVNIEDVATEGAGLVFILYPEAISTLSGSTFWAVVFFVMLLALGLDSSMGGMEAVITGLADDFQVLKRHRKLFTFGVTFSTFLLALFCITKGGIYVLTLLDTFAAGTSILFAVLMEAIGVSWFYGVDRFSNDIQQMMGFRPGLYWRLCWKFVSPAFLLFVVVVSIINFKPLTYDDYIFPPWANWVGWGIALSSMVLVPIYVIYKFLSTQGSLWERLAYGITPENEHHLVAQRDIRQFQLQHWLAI
T2 sequence (P31645 whole entry): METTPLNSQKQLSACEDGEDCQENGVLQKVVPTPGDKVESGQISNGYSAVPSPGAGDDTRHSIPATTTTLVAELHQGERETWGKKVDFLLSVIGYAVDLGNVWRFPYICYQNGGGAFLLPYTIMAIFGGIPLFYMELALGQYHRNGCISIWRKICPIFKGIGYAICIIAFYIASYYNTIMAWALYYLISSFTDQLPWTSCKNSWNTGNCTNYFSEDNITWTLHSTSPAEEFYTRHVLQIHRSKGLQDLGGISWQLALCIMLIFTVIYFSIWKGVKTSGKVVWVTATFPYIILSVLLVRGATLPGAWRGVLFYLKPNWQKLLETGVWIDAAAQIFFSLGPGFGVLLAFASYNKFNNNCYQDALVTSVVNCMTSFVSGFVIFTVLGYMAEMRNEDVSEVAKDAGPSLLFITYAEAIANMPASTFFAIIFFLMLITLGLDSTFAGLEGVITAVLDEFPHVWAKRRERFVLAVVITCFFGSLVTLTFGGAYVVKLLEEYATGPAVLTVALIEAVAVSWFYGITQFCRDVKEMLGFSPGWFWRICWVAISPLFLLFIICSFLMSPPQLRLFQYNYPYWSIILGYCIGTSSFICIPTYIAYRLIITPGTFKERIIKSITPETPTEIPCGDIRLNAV

Row | Structure (SMILES) | Ki [1] [nM] | Ki [2] [nM] | inhibition in vivo at 10 mg/kg [3, 4] [%] | inhibition in vivo at 10 mg/kg [3] [%] | % Inhibition of Allodynia +/− SEM ([3]; male Sprague-Dawley rats, subcutaneous single dose 30 mg/kg, contralateral PWT at 2 hour after dose, mean of eight animals) | % Inhibition of Allodynia +/− SEM ([3]; male Sprague-Dawley rats, subcutaneous single dose 10 mg/kg, contralateral PWT at 1 hour after dose, mean of eight animals) [% +/− 14.8]
1 | Fc1ccc(F)c(-n2nc(OCC3CCCNC3)c3ccccc32)c1 (racemic) [Example 31, (±)-1-(2,5-Difluoro-phenyl)-3-(piperidin-3-ylmethoxy)-1H-indazole hydrochloride] | 6.58 | 134 | 47 | – | – | –
2 | Fc1ccccc1-n1nc(OC2CCNCC2)c2ccccc21 [Example 1, 1-(2-Fluorophenyl)-3-(piperidin-4-yloxy)-1H-indazole hydrochloride] | 3.14 | 51.1 | – | 67.7 | – | –
3 | Cl.Fc1ccccc1-n1nc(OC[C@H]2CCNC2)c2ccccc21 [Example 7, (S)-(−)-1-(2-Fluorophenyl)-3-(pyrrolidin-3-ylmethoxy)-1H-indazole hydrochloride] | 5.3 | 54.7 | 12.2 | – | 71.5 +/− 4.6% | –
4 | Fc1ccc(-n2nc(OC[C@H]3CCNC3)c3ccccc32)c(F)c1 [Example 8, (S)-1-(2,4-Difluoro-phenyl)-3-(pyrrolidin-3-ylmethoxy)-1H-indazole hydrochloride] | 5.19 | 39 | 11.5 | – | – | –
5 | Fc1ccc(-n2nc(OC[C@@H]3CCNC3)c3ccccc32)c(F)c1 [Example 9, (R)-1-(2,4-Difluoro-phenyl)-3-(pyrrolidin-3-ylmethoxy)-1H-indazole hydrochloride] | 5.63 | 81.6 | 34.1 | – | – | –
6 | Fc1ccc(F)c(-n2nc(OC[C@H]3CCNC3)c3ccccc32)c1 [Example 32, (S)-1-(2,5-Difluoro-phenyl)-3-(pyrrolidin-3-ylmethoxy)-1H-indazole hydrochloride] | 3.41 | 33.6 | 60.7 | – | – | –
7 | Fc1cccc(-n2nc(OC3CCNCC3)c3ccccc32)c1 [Example 43, 1-(3-Fluoro-phenyl)-3-(piperidin-4-yloxy)-1H-indazole hydrochloride] | 17.9 | 138 | 55.4 | – | – | –
8 | Fc1ccc(-n2nc(OC[C@@H]3CNCCO3)c3cc(F)ccc32)c(F)c1.O=C(O)/C=C\C(=O)O [Example 48, (S)-(+)-1-(2,4-Difluorophenyl)-5-fluoro-3-(morpholin-2-ylmethoxy)-1H-indazole maleate] | 10.2 | 298 | – | – | – | 74.9
9 | Fc1ccc2c(c1)c(OC1CCNCC1)nn2-c1ccccc1F [Example 51, 5-Fluoro-1-(2-fluoro-phenyl)-3-(piperidin-4-yloxy)-1H-indazole hydrochloride] | 11.9 | 53.7 | 26 | – | – | –

The remaining compounds from weak to strong by Ki [1], led by results:

Row | Ki [1] [nM] | Ki [2] [nM] | Structure (SMILES) | inhibition in vivo at 10 mg/kg [3, 4] [%] | inhibition in vivo at 10 mg/kg [3] [%] | % Inhibition of Allodynia +/− SEM ([3]; male Sprague-Dawley rats, subcutaneous single dose 30 mg/kg, contralateral PWT at 2 hour after dose, mean of eight animals) | % Inhibition of Allodynia +/− SEM ([3]; male Sprague-Dawley rats, subcutaneous single dose 10 mg/kg, contralateral PWT at 1 hour after dose, mean of eight animals) [% +/− 14.8]
10 | 25.9 | 81 | Fc1ccc(-n2nc(OC3CCNCC3)c3ccccc32)cc1 [Example 42, 1-(4-Fluoro-phenyl)-3-(piperidin-4-yloxy)-1H-indazole hydrochloride] | 31.7 | – | – | –
11 | 20.2 | 122 | c1ccc(-n2nc(OC3CCNCC3)c3ccccc32)cc1 [Example 20, 1-Phenyl-3-(piperidin-4-yloxy)-1H-indazole hydrochloride] | 41.1 | – | – | –
12 | 18.1 | 52.2 | Fc1ccc2c(c1)c(OCC1CCCNC1)nn2-c1ccccc1F (racemic) [Example 57, (±)-5-Fluoro-1-(2-fluoro-phenyl)-3-(piperidin-3-ylmethoxy)-1H-indazole hydrochloride] | 26 | – | – | –
13 | 13.1 | 100 | c1ccc(-n2nc(OC[C@@H]3CCNC3)c3ccccc32)cc1 [Example 14, (R)-1-Phenyl-3-(pyrrolidin-3-ylmethoxy)-1H-indazole hydrochloride] | 30.8 | – | – | –
14 | 6.34 | 42.3 | Fc1ccc(F)c(-n2nc(OC3CCNCC3)c3ccccc32)c1 [Example 27, 1-(2,5-Difluoro-phenyl)-3-(piperidin-4-yloxy)-1H-indazole hydrochloride] | 27 | – | – | –
15 | 6.13 | 9.99 | Fc1ccc(-n2nc(OC3CCNCC3)c3cc(F)ccc32)c(F)c1 [Example 56, 1-(2,4-Difluoro-phenyl)-5-fluoro-3-(piperidin-4-yloxy)-1H-indazole hydrochloride] | 11 | – | – | –
16 | 4.63 | 102 | Fc1ccccc1-n1nc(OC2CCNCC2)c2c(F)cccc21 [Example 100, 4-Fluoro-1-(2-fluoro-phenyl)-3-(piperidin-4-yloxy)-1H-indazole hydrochloride] | 8.7 | – | – | –
17 | 4.44 | 64.6 | Fc1ccc(F)c(-n2nc(OC[C@@H]3CCNC3)c3ccccc32)c1 [Example 30, (R)-1-(2,5-Difluoro-phenyl)-3-(pyrrolidin-3-ylmethoxy)-1H-indazole hydrochloride] | 68 | – | – | –
18 | 3.2 | 47.5 | Fc1ccc2c(c1)c(OC[C@H]1CCCNC1)nn2-c1ccccc1F [Example 45, (S)-(−)-5-Fluoro-1-(2-fluorophenyl)-3-(piperidin-3-ylmethoxy)-1H-indazole maleate] | 46.2 | – | – | –

Source: US7423054B2, “Therapeutic pyrazolo[3,4-b]pyridines and indazoles” (Warner Lambert Company LLC, priority 2004, dated 2008)
